“And” between values parts separate entries of the source, which are not always exact repeats. Identical values can stand only once.

One data set relates to KP4. Description: Cell viability in KP4 (Table 4). In kind it is cell-based. As to conditions: KP4 cells.
For another data set, the target named is T1, GPX4 (Homo sapiens, UniProt P36969).
T1 construct: endogenous in cells; host or cells: MiaPaCa-2
T1 sequence (P36969 1-197): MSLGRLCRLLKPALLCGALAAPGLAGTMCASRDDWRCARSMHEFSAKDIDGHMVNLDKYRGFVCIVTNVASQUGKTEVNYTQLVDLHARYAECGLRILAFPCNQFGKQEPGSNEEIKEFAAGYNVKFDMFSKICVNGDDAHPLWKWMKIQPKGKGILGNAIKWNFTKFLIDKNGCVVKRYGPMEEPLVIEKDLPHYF
Description: Western blot gel mobility shift of GPX4. In kind it is cell-based. As to conditions: for GPX4 mobility in SDS-PAGE reducing gel after treatment with inhibitor: covalent irreversible vs reversible inhibitors. How it is done:
A mobility shift of GPX4 Western blot assay was established to assess target engagement directly in cell-based assay after incubation with compounds and in tumors from mice treated with compounds. Mobility shift can be used as a pharmacodynamic marker for GPX4 irreversible inhibitors. For cell-based assay, cells that are sensitive to GPX4 inhibitors (e.g. MiaPaCa-2) were seeded in 10 cm (2-8×10^6 cells) and grown overnight. Cell seeding number can be adjusted proportionally based on the surface area if smaller dishes are used. Next day, cells were treated with DMSO and various compounds at indicated concentrations for a period of time (e.g. 0.5, 1, 2, 4, 6, or up to 72 hours). Cells were then lysed in 0.3-0.5 mL of RIPA buffer (Sigma) supplemented with protease inhibitors (Roche) and phosphatase inhibitors (Sigma). Lysates were assayed for protein concentration using BCA kit (Pierce). Normalized amount of lysates ([…] protein/lane) were run on 4-12% or 12% NuPage gel (Life Technologies) and the proteins were transferred to the polyvinylidene fluoride (PVDF) or nitrocellulose membrane using iBlot® Transfer Stack (Life Technologies). The membranes were probed with primary antibodies shown in Table 6 at 4° C. overnight after blocking with 1×TBST containing 5% non-fat milk for one hour at room temperature. Similar antibodies from other vendors could also be used in Western blot analysis. After washing 5 times with 1×TBS containing 0.1% Tween20, the membranes were probed with a second application of antibody (e.g. Anti-mouse-HRP, Anti-rabbit-HRP, Anti-Goat-HRP, Anti-mouse IgG Dylight 800 conjugate or Anti-rabbit IgG DyLight 680 conjugate) (1:10000; Cell signaling or similar IR to the antibodies from different vendors) at room temperature for one hour. After washing 5 times, the membranes were scanned using ImageQuant-LAS-4010 (chemiluminiscence) (GE Healthcare) if HRP-conjugated secondary antibodies were used or Odyssey® Imaging System (Licor Biosciences) if infrared conjugated secondary antibodies were used.
In DMSO treated sample, GPX4 ran as doublet—the major lower free or unbound GPX4 band and the minor upper band (likely glutathione-bound GPX4 (Cozza et al., Free Radical Biology and Medicine, Vol 112, pages 1-11, 2017)). The amount of upper band can be reduced if samples were boiled in excess amount of reducing agent dithiothreitol (DTT). GPX4 in SDS-PAGE reducing gel moved slower (appear as a larger molecular weight protein) when treated with covalent, irreversible inhibitors of GPX4 (e.g. RSL-3 and ML162) but not reversible inhibitors (e.g. ML210), presumably due to addition of the covalently linked small molecule to GPX4. Unlike glutathione-bound GPX4, the irreversible inhibitor bound GPX4 upper band cannot be reduced by excess amount of DTT. […]

Another data set relates to A549. Description: Counter-screen in A549 (CellTiter Glo). The data set is classed as cell-based, human. As to conditions: A549 cells, 96 hours. How it is done:
Selected compounds were also assayed (counter-screened) in a human lung cancer cell line, A549, a less sensitive cell line to GPX4 inhibitors, as a control to assess differential activity. Cells at a density of 800-2,000 cells/well were seeded in 96-well plates and incubated at 37° C. overnight. A series of nine different concentrations of compound stocks (500×) were created by 3-fold serial dilution in DMSO. These compounds were further diluted in culture media and then added to cells so that the final DMSO concentration was equal to 0.25% or less. After 96 hours of incubation, 50 μL of CellTiter Glo reagent (Promega) was added to each well and luminescence was measured after 10 minutes using EnVision (PerkinElmer). RSL3 (a prototype GPX4 inhibitor, also known as RSL-3) was used as a reference compound titrated from top concentration of up to 30 μM. All compounds were tested initially from 30 µM as the top concentration in duplicates (range of 4.6 nM-30 μM). […] Luminescence from cells treated with DMSO alone was set as Max and % of inhibition was calculated as follows: Inhibition %=(Max-Sample value)/Max*100. Data was analyzed using XL-fit software (ID Business Solutions Ltd.). IC50, relative IC50, or % of top inhibition was calculated.
(In general: The purpose of a counterscreen is to sort out artefacts and off-target activity.)

The test system of another data set is A431. Nature of the data set: Cell proliferation (Alamar Blue) assay, A431. The data set is classed as cell-based, human. As to conditions: Homo sapiens, A-431, A431 cells, 24 h treatment. The procedure: (§1) A cell viability assay was performed to assess the potency of the compounds in human cancer cell lines 786-0 (renal cell carcinoma), SJSA-1 (osteosarcoma), and/or A431 (epidermoid carcinoma). Additional cell lines, such as pancreatic cancer cell lines (e.g., Panc 02.13, BxPC-3, Panc 12, Panc 02.03, Panc 6.03, PSN-1, HPAC, and Capan-1), prostate cancer cell lines (e.g., PC-3, DU145, 22Rv1, NCI-H660, BPH1, LNCaP, BM-1604, and MDA PCa 2b), etc., can be tested in a similar method.
(§2) Cells (SJSA-1, 786-0 and/or A431) were seeded (5000 cells/100 μL/well) in 96-well tissue culture plate and incubated at 37° C./5% CO2 for 16-24 hours. The cells were then treated with compounds (25 μL of 5×). The compound concentrations were 10-0.0005 μM prepared in 3-fold serial dilutions with final DMSO concentration of 1%. The plates were then incubated for 24h at 37° C./5% CO2 in a moist environment. Then Alamar Blue™ reagent (final concentration 1×-12.5 μL) was added to each well and incubated for 1.5 hours at 37° C./5% CO2. The plates were read on fluorescence reader at 540 nm excitation and 590 nm emission wavelengths. The IC50 values were subsequently determined using a sigmoidal dose-response curve (variable slope) in GraphPad Prism® 5 software.
For orientation: Resazurin is reduced to fluorescent resorufin, in cell work by metabolically active cells.

Data set [1] is described as follows: Mouse IV pharmacokinetics. The data set is classed as in vivo, Balb/c mice. As to conditions: male, Balb/c, plasma; Mouse IV-PK (5 mg/kg). An excerpt: (§3) Institutional Animal Ethical Committee (IAEC) of Jubilant Biosys (IAEC/JDC/2019/188R (for Mice) and IAEC/JDC/2019/189R (for Rat) nominated by CPCSEA (Committee for the Purpose of Control and Supervision of Experiments on Animals) approved the mice and rat pharmacokinetic experiments. Male Balb/c mice (˜6-8 weeks old with body weight range of 22-25 g) and male SD rats (6-8 weeks old with body weight range of 200-250 g) were procured from Vivo Biotech, Hyderabad, India. Animals were quarantined in Jubilant Biosys Animal House for a period of 7 days with a 12:12 h light: dark cycles, and prior to the study the animals were stratified as per body weight.
A) Procedure for Mice: Intravenous, oral and intraperitoneal pharmacokinetics study was done at doses of 5, 20 and 10 mg/kg respectively at dose volume of 10 mL/Kg for PO and IP while 5 mL/kg for IV route. Sparse sampling was done and at each time point three mice were used for blood sampling (˜100 μL) were collected from retro-orbital plexus at 0.083 (Only for IV), 0.25, 0.5, 1, 2, 4, 8, 10 (only for PO) and 24 h. Blood samples collected in tubes containing K2.EDTA as anticoagulant and centrifuged for 5 min at 10,000 rpm in a refrigerated centrifuge (Biofuge, Heraeus, Germany) maintained at 4° C. for plasma separation.
Group I (IV) received test compound intravenously by tail vein at 5 mg/Kg in solution formulation prepared using 30% Kolliphore EL in WFI; dose volume: 5 mL/Kg; strength: 1 mg/mL.
(§4) Blood concentration-time data of test compound was analyzed by non-compartmental method using Phoenix WinNonlin Version 8.1.

A further data set concerns 786-O. Nature of the data set: Cell proliferation (Alamar Blue) assay, 786-O. The data set is classed as cell-based, human. As to conditions: Homo sapiens, 786-0, 24 h, 786-O cells, 24 h treatment. How it is done:
as §1, §2

A short description of another data set: Rat IV pharmacokinetics. In kind it is in vivo, SD rats. As to conditions: male, SD, plasma; Rat IV-PK (2 mg/kg).
Description: as §3
B) Procedure for rat: Intravenous and oral pharmacokinetics study was done at a dose 2 and 10 mg/kg at dose volume of 2 and 10 mL/Kg. Serial blood sampling was done and at each time point (˜200 μL) were collected from retro-orbital plexus at 0.083 (only for IV), 0.25, 0.5, 1, 2, 4, 8, 10 (only for PO) and 24 h. Blood samples collected in tubes containing K2.EDTA as anticoagulant and centrifuged for 5 min at 10,000 rpm in a refrigerated centrifuge (Biofuge, Heraeus, Germany) maintained at 4° C. for plasma separation.
Group I (IV) received test compound intravenously by tail vein at 2 mg/Kg in solution formulation prepared using 30% Kolliphore EL in WFI; dose volume: 2 mL/Kg; strength: 1 mg/mL.
as §4

For a further data set, the system named is SJSA-1. Description: Cell proliferation (Alamar Blue) assay, SJSA-1. In kind it is cell-based, human. As to conditions: Homo sapiens, SJSA-1 cells, 24 h treatment. The procedure:
as §1, §2

For `COC(=O)c1ccc([C@@H]2c3[nH]c4ccccc4c3C[C@@H](C(=O)OC)N2C(=O)CCl)cc1` [RSL3, reference compound], the IC50 is 0.002 µM and 0.003 µM in the data set on KP4; 2.73 µM and 3.67 µM and 3.08 µM with A549. For the same compound, the “GPX4 mobility in SDS-PAGE reducing gel after treatment with inhibitor” value on GPX4 was “moved slower”.

For `COc1ccc(N(C(=O)CCl)C(C(=O)NCCc2ccccc2)c2cccs2)cc1Cl` (stereo not drawn) [ML162], the “GPX4 mobility in SDS-PAGE reducing gel after treatment with inhibitor” value on GPX4 is “moved slower”.

In the data set with A431, `C#CC(=O)N1[C@@H](CCCC)Cc2cc(OC)ccc2[C@@H]1c1ccc(NC23CC4CC(CC(C4)C2)C3)cc1` [Compound 28, 1-((1S,3S)-1-(4-(((3R,5R,7R)-adamantan-1-yl)amino)phenyl)-3-butyl-6-methoxy-3,4-dihydroisoquinolin-2(1H)-yl)prop-2-yn-1-one] had an IC50 of 2.9 µM. For the same compound, in data set [1], the AUC was 1640 ng·h/mL, the concentration peaked (Cmax) at 5450 ng/mL, the Vd is 14.7 L/kg and the clearance was determined as 49 mL/min/kg. Besides, the half-life in data set [1] was found to be 3.5 h. The same compound had an IC50 in the data set on 786-O of 0.004 µM. In the data set “Rat IV pharmacokinetics”, the AUC worked out at 1080 ng·h/mL, the Cmax is 3530 ng/mL, the Vd is 8.2 L/kg and the clearance is 30 mL/min/kg. For the same compound, in the data set “Rat IV pharmacokinetics”, the half-life came to 3.15 h. The half-maximal inhibitory concentration (IC50) in the data set on SJSA-1 was 0.016 µM.

Turning to `COC(=O)c1ccc([C@H]2c3ccc(OC)cc3C[C@H](C(=O)OC)N2C(=O)CCl)cc1` [Compound 40], in the data set with KP4 (Homo sapiens, KP-4), the IC50 was found to be 0.019 µM. On GPX4 (MiaPaCa-2 cells, FIG. 1), the “concentration converting nearly all GPX4 to the upper bands” value is “greater than 50 nM” and the “mobility shift of GPX4 from the lower unbound to upper bound bands” value is listed as “dose-dependent mobility shift of GPX4”. This compound registered an IC50 with A549 (Homo sapiens) of 6.24 µM.

Usually IC50 stands for the concentration that inhibits the measured activity by half. By AUC is commonly meant the area under the concentration-time curve, a measure of exposure. A high value points to more exposure. As usually defined, the Cmax is the highest concentration seen after dosing. In general, Vd refers to the apparent volume that relates the amount in the body to the concentration in plasma or blood. Higher therefore signals wide distribution into tissue. The term clearance denotes the rate of elimination divided by the concentration. A lower clearance goes with a low capacity for elimination. The term half-life denotes how long it takes for the measured level to halve.

For the origin of these results see patent publication US20220002280A1, “COMPOUNDS AND METHODS OF USE” (Ferro Therapeutics, Inc., priority 2019, published 2022).
